From article PMC10398414, “Isolation and characterization of β-transducin repeat-containing protein ligands screened using a high-throughput screening system” (Oncology Research, 2023)
Square brackets hold non-standard residues; d marks the D form. Ends that are not written are not given here. Peptide text beside a SMILES is read from it. * marks the point of attachment. pS = N[C@@H](COP(=O)(O)O)C(=O)O; Cbz = O=C(OCc1ccccc1)*

Columns and labels:
[1] = tested on: IκBα and phosphorylated IκBα in HeLa cells; experiment: TNF-α induced IκBα degradation by immunoblotting in HeLa cells; format: cell-based; conditions: 30 min compound then TNF-α 40 ng/mL 5 min
Procedure: (§1) Immunoblotting followed by in vitro ubiquitination assay was performed using anti-human Wee1A [30]. Immunoblotting in the analysis of protein degradation was performed using anti-phospho-β-catenin (Ser33/37/Thr41) antibody (1:1000, Cell Signaling Technology, Danvers, MA, USA), anti-phospho-IκBα (Ser32) (14D4), Rabbit mAb (1:1000, Cell Signaling Technology), anti-β-catenin (D10A8) (1:1000, Cell Signaling Technology), anti-IκBα antibody (1:1000, Cell Signaling Technology), and Goat polyclonal anti-rabbit IgG antibody (1:5000, Proteintech, Am Klopferspitz, Planegg-Martinsried, Germany). The transferred membrane was incubated with specific antibody, then detected using Super Signal West Pico chemiluminescent substrate (Thermo Fisher Scientific) and FUSION SOLO S (VILBER LOURMAT/MS equipment, Zi Sud torcy, Marne-la-vallee, France). The quantification of immunoblotting results was performed using ImageJ software.
For examining the effect on degradation of IκBα, HeLa cells were cultured in the presence or absence of the compound for 30 min. TNF-α (Cat. No. TNA-H4211, Acro Biosystems, Newark, DE, USA) was added (40 ng/mL) and incubated for another 5 min. The cell extracts were analyzed using immunoblotting using antibodies against IκBα and phosphorylated IκBα (p-IκBα).

[2] = tested on: β-catenin and phosphorylated β-catenin in HeLa cells; experiment: Analysis of β-catenin degradation by immunoblotting in HeLa cells; format: cell-based; conditions: 3 h with compound
Procedure: as §1
For examining the effect on degradation of β-catenin, HeLa cells were cultured in the presence or absence of the compound for 3 h. The cell extracts were examined by immunoblotting using antibodies against β-catenin and phosphorylated β-catenin (p-β-catenin).

[3] = tested on: NF-κB transcription activity in HeLa cells; experiment: NF-κB luciferase reporter assay (pGL-4.32), TNF-α induced; format: cell-based; conditions: for NF-κB transcription, % of that of the control group (DMSO, TNF-α): 20 μM; for TNF-α induced NF-κB activation of transcription: 24 h compound then TNF-α 4 h
Procedure: For NF-κB transcription activity, PGL-4.32 contains five copies of the NF-κB response element, which is responsible for the transcription of the luciferase reporter gene, with pRL-SV40 as the internal control. NF-κB transcription activity was determined by firefly luciferase expression and normalized by renilla luciferase level. pGL-4.32 reporter plasmids (Promega) and pRL-sv40 renilla luciferase reporter (Promega) were co-transfected into HeLa cells using Lipofectamine 3000 reagent kit. Subsequently, 24 h after transfection, cells were cultured with the compounds of different dilutions for another 24 h. Furthermore, TNF-α was added, and the plates were cultured for another 4 h. The cells were lysed, and the luminescence was measured using the Luciferase Assay System. A minimum of three samples were taken for each sample.

[4] = molecular target: SCF^β-TrCP1 (Homo sapiens, UniProt Q9Y297); experiment: In vitro ubiquitination assay (GST-Wee1KR substrate, immunoblotting); format: biochemical; conditions: immunoblots quantitated by ImageJ
Sequence of SCF^β-TrCP1 (P63208 whole entry partner, one chain of several): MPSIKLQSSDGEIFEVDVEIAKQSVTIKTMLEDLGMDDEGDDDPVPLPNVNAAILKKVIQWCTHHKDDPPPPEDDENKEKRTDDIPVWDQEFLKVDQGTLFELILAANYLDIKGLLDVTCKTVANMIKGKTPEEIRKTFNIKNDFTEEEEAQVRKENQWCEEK
Sequence of SCF^β-TrCP1 (Q13616 whole entry partner, one chain of several): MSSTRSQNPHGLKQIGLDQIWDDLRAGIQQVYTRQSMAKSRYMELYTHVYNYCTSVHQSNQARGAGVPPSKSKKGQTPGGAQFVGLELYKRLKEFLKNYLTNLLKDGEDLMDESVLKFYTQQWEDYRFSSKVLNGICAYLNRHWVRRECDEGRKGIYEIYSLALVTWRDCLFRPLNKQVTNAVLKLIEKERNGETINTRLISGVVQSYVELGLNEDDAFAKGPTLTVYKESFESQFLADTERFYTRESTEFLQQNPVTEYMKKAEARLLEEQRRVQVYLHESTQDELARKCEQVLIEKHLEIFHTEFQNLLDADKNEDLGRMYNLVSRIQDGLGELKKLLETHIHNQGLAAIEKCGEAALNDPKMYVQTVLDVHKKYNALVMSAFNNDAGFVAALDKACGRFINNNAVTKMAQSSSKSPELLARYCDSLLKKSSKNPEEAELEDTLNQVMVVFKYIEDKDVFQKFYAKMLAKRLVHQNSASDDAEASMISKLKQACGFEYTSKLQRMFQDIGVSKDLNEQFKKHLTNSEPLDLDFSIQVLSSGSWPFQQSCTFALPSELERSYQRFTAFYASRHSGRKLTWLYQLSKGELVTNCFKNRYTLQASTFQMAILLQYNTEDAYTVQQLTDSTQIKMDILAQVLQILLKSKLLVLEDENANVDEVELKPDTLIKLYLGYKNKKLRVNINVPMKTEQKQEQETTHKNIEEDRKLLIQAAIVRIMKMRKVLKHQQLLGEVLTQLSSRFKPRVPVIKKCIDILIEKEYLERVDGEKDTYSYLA
Sequence of SCF^β-TrCP1 (P62877 whole entry partner, one chain of several): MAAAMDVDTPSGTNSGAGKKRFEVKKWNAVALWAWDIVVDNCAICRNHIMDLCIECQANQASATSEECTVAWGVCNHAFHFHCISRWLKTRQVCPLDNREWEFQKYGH
Procedure: Components of SCF complex (SKP1, Cul1, Rbx1, and hemagglutinin (HA)-tagged β-TrCP) were expressed in HEK293T cells. Anti-HA antibody was added into the SCF complexes expressed HEK 293T cell lysate and rotated at 4°C for 1 h. Aliquots of this mixture were added to protein G beads and rotated at 4°C for 30 min. After washing the beads in cell lysis buffer three times, the tube was centrifuged at 20,400 × g for 5 min and the supernatant was discarded. The protein on the beads was used as recombinant SCF^β-TrCP complexes. Aliquots of SCF complexes bound on the beads were then added to ubiquitination reactions (10 mM Tris pH = 7.5, 5 mM MgCl2, 1 mM DTT, 1 mM ATP, 20 mM creatine phosphate, 0.1 mg/mL creatine kinase, 5 mM NaF, 1 mM Na3VO4, 2 mg/mL ubiquitin, 0.5 μg E1 enzyme, 2 μg E2 enzyme) in a final volume of 30 µL. Compounds of 100 µM final concentration were added to reactions, and GST-Wee1KR was added as substrate 15 min later. The reaction mixtures were incubated at 37°C for 2 h and were further examined by immunoblotting.
as §1

[5] = tested on: TCF transcription in HeLa cells; experiment: TOP/FOP-Flash luciferase reporter assay (TCF transcription activity); format: cell-based; conditions: 24 h with compound
Procedure: HeLa cells were seeded on 96-well plates. Subsequently, TCF and NF-κB transcription activity was examined by the luciferase assay system. T-cell Factor (TCF) transcription activity was assessed by TOP/FOP-Flash luciferase reporter assay, using a pRL-SV40 vector as an internal control. TOP FLASH contains three […] and a firefly luciferase reporter with a minimal promoter and an upstream of the luciferase reporter gene. FOP FLASH is similar to TOP reporter; however, it has three mutated TCF-binding sites and is used as a negative control. The average ratio of TOP to renilla luciferase divided by FOP was used as TCF activity. TOP flash (Sigma-Aldrich, Temecula, CA, USA) or FOP FLASH reporter plasmids (Sigma-Aldrich) and pRL-sv40 renilla luciferase reporter (Promega) were co-transfected into HeLa cells using Lipofectamine 3000 reagent kit (Thermo Fisher Scientific). Furthermore, 24 h after transfection, cells were cultured with the compounds of different dilutions for another 24 h. The cells were lysed, and the luminescence was measured using the Luciferase Assay System (Promega). A minimum of three samples were taken for each sample.

[6] = tested on: HeLa cells; experiment: Cytotoxicity / cell death; format: cell-based; conditions: data not shown
[7] = molecular target: T1, mAG-β-TrCP1 (Homo sapiens, UniProt Q9Y297); experiment: High-throughput screening system for β-TrCP ligands (mAG-β-TrCP1 binding to plate-fixed C-IκB-PP15); conditions: serially diluted free phosphopeptide in cell lysate
T1 construct: made in house; host or cells: Express SF+ insect cells (baculovirus, pFASTBacI); crude lysate used
T1 sequence (Q9Y297 1-605): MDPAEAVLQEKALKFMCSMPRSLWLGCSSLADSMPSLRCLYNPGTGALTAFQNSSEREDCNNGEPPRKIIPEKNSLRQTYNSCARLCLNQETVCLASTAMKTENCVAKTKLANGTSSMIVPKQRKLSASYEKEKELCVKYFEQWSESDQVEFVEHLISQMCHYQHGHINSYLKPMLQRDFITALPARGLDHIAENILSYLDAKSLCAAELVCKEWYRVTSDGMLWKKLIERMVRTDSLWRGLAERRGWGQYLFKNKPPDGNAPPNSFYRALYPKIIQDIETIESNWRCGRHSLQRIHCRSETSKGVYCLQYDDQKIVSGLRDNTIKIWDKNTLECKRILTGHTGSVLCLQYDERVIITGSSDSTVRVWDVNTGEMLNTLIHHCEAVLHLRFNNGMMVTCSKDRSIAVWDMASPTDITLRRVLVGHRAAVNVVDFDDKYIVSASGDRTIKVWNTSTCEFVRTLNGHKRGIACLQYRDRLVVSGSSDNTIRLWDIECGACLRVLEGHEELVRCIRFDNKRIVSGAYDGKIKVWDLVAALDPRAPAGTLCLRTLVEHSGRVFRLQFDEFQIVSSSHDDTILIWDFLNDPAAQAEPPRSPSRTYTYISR
From the text: NotI digested mAG-β-TrCP1 (mAG, N-terminally fused fluorescent monomeric Azami Green) fragment was inserted to NotI pFASTBacI (Gibco) site for obtaining recombinant plasmid containing mAG-β-TrCP1. The recombinant plasmids were then transformed into DH10Bac cells and the obtained recombinant bacmids were transfected into Express SF+ Cells. Phosphopeptides C-IkB pp15 with target sequences (seq: CDDRHDpSGLDpSMKDEE) for β-TrCP-dependent binding or its negative control C-IkB s15 (seq: CDDRHDSGLDSMKDEE) were used in the establishment of the high-throughput system. These phosphopeptides, and their non-phosphorylated derivatives, were chemically synthesized at RIKEN CBS, Research Resources Center, Japan. C-IkB pp15 or C-IkB s15 (100 μL/well of 10 μM solution) were covalently attached to maleimide-activated 96-well plates (Themo Fisher Scientific, Waltham, MA, USA) overnight. […] After washing, bound mAG-β-TrCP1 was quantitated using spectrofluorometry (excitation, 470 nm; emission, 525 nm).
C-IκB-PP15 is a phosphopeptide whose sequence is derived from IκB that is known to bind to β-TrCP. […] After enough binding and washing, the bound mAG-β-TrCP1 was quantitated using spectrofluorometry. […] When the small molecules compete with the phosphopeptides for mAG-β-TrCP1 binding, there was less plate fluorescence (Fig. 1A).

Molecule: CC(C)C[C@@H](C=O)NC(=O)[C@H](CC(C)C)NC(=O)[C@H](CC(C)C)NC(=O)OCc1ccccc1 [MG132, reference compound] (Cbz-Leu-Leu-Leu-aldehyde)
- level of IκBα after TNF-α [1]: caused the inhibition of the degradation
- level of phosphorylated IκBα (p-IκBα) after TNF-α [1]: caused the inhibition of the degradation
- level of phosphorylated β-catenin (p-β-catenin) [2]: caused the accumulation
- level of β-catenin [2]: caused the accumulation

Molecule: O=C(O)c1ccc(N2N=C(Cc3ccccc3)/C(=C/c3ccc(-c4ccccc4F)o3)C2=O)cc1 [GS143, reference compound]
- NF-κB transcription, % of that of the control group (DMSO, TNF-α) [3]: ~ 40%
- IC50 [4]: 25 µM
- level of IκBα after TNF-α [1]: caused the inhibition of the degradation
- level of phosphorylated IκBα (p-IκBα) after TNF-α [1]: caused the inhibition of the degradation
- level of phosphorylated β-catenin (p-β-catenin) [2]: did not affect
- level of β-catenin [2]: did not affect
- TCF transcription [5]: did not affect TCF transcription

Molecule: CC1=NN(c2ccc(C(=O)O)cc2)C(=O)/C1=C\c1ccc(-c2cc(C)c(C)cc2[N+](=O)[O-])o1 [NPL62020-01]
- NF-κB transcription, % of that of the control group (DMSO, TNF-α) [3]: approximately 20%
- TNF-α induced NF-κB activation of transcription [3]: reduced NF-κB activation dose-dependently
- IC50 [4]: 30 µM
- non-specific cytotoxicity [6]: cytotoxicity only at high concentration

Molecule: CC1=NN(c2ccc(C(=O)O)cc2)C(=O)/C1=C\c1ccc(-c2ccc3c(c2)C(=O)N(C(C)C)C3=O)o1 [NPL42040-01]
- TNF-α induced NF-κB activation of transcription [3]: reduced NF-κB activation dose-dependently
- IC50 [4]: 13 µM
- non-specific cytotoxicity [6]: cytotoxicity only at high concentration

Molecule: O=C(O)c1ccc(-c2ccc(/C=C3\C(=O)N(c4ccc(C(=O)O)cc4)N=C3C(F)(F)F)o2)cc1 [NPL72038-01]
- IC50 [4]: 7 µM
- level of phosphorylated β-catenin (p-β-catenin) [2]: promoted the accumulation
- level of β-catenin [2]: did not significantly affect
- TCF transcription [5]: did not cause a high increase

Molecule: COC(=O)c1ccc(-c2ccc(/C=C3\C(=O)N(c4cccc(C(=O)O)c4)N=C3C(F)(F)F)o2)cc1 [NPL62039-01]
- IC50 [4]: 9 µM
- level of phosphorylated β-catenin (p-β-catenin) [2]: promoted the accumulation
- level of β-catenin [2]: did not significantly affect
- TCF transcription [5]: did not cause a high increase

Molecule: CDDRHDpSGLDpSMKDEE (CDDRHD[pS]GLD[pS]MKDEE) [C-IκB-PP15]
- binding of mAG-β-TrCP1 to plate-fixed phosphopeptide in presence of free phosphopeptide [7]: concentration-dependent binding decrease

B1: Wnt3a: molecule that stimulates classic Wnt signaling (protein, UniProt P56704 19-352, looked up)
Protein Wnt-3a: SYPIWWSLAVGPQYSSLGSQPILCASIPGLVPKQLRFCRNYVEIMPSVAEGIKIGIQECQHQFRGRRWNCTTVHDSLAIFGPVLDKATRESAFVHAIASAGVAFAVTRSCAEGTAAICGCSSRHQGSPGKGWKWGGCSEDIEFGGMVSREFADARENRPDARSAMNRHNNEAGRQAIASHMHLKCKCHGLSGSCEVKTCWWSQPDFRAIGDFLKDKYDSASEMVVEKHRESRGWVETLRPRYTYFKVPTERDLVYYEASPNFCEPNPETGSFGTRDRTCNVSSHGIDGCDLLCCGRGHNARAERRREKCRCVFHWCCYVSCQECTRVYDVHTCK
- TCF transcription [5]: increased
